# Measured values as given in PubChem BioAssay AID179 (DTP/NCI, 2004).
# Calls of active or inactive are those of the source.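 How the source made its calls: active means compounds giving half or more protection of infected cells from virus-caused growth loss, again on retest; inactive means the rest.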
# Tested on: CEM cells HIV-1 protection, formazan growth assay
# Assay: NCI AIDS Antiviral Assay
# Settings: for IC50: measured here: growth of uninfected CEM cells
# Outline: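 CEM (human) cells, HIV-1 infected vs uninfected, 5-point dosing, formazan growth read-out. Retest threshold 50% protection.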
SMILES,EC50 [µM],IC50 [µM],outcome
O=C1Sc2ccccc2Cn2cccc21,186,> 200,–
CNC(=O)N(CCC#N)CCCN(C(=O)NC)c1ccccc1,> 200,> 200,–
OC(C#CC(O)(c1ccccc1)c1ccccc1)(c1ccccc1)c1ccccc1,> 200,11,–
CC(C)(C)C(=O)CS(=O)(=O)O,> 200,> 200,–
Cn1c(=O)c2nc(-c3ccc(Cl)c(Cl)c3)c(-c3ccc(Cl)c(Cl)c3)nc2n(C)c1=O,> 200,29.5,–
O=C(c1cc2c(C(F)(F)F)onc2c2ccccc12)C(F)(F)F,> 107,8.32,–
C/C(Sc1ccccc1)=C1/CCCN(Cc2ccccc2)C1,> 200,74.1,–
C#CC(O)c1ccc(OC)c(OC)c1 (centres undefined),–,–,inactive
COC(=O)C1Cc2c(OC)ccc(OC)c2CC(C(=O)OC)C1=O (centres undefined),> 200,182,–
O=C(Nc1cccc(O)c1)C(=O)C(C(=O)c1ccc(Cl)c(Cl)c1)C1OC(=O)c2ccccc21 (centres undefined),> 141,64.6,–
CC(=O)N1C(=O)CC2(N=C(C)CC2=O)c2ccccc21 (centres undefined),> 200,> 200,–
COc1ccc(C2c3cc4c(cc3OC(N3CCOCC3)C2C)OCO4)c(OC)c1OC (centres undefined),> 200,9.55,–
Cc1ccc(-c2nc3scc(C)n3n2)cc1,> 200,182,–
CN=Cc1ccccc1O.CN=Cc1ccccc1O.[Cu+2],> 200,11.2,–
Cn1c(=O)nc2n(-c3cccc(Br)c3)c3ccccc3nc-2c1=O,–,–,inactive
O=C1CCCCCCCCCCCC(=O)OCCO1,> 132,> 132,–
COc1ccc2c(c1)O[C@@H]1c3ccc(OC)cc3OC[C@H]21,–,–,inactive
COC(=O)C1=C(C)N(NC(=O)c2cccc(Cl)c2)C(C)(O)C12CCOC2=O (centres undefined),> 631,275,–
Cc1ccc2c(c1)C(=O)C1(C2)Cc2ccc(C)cc2C1=O,191,> 200,–

SMILES,EC50 [µM],IC50 [µM],outcome
CC(=O)OC1C[N+]2(CCc3ccccc3)CCC1CC2 (centres undefined),> 708,> 708,–
C=C1CC(c2ccc(OCCCN3C(=O)c4ccccc4C3=O)cc2)OC1=O (centres undefined),> 20,1.7,–
C[C@@]1(O)C2C3CC4C5C3C1[C@](O)(C42)[C@H]5Br (some centres undefined),–,–,inactive
C[CH2][Sn]([Cl])([Cl])[CH2]C,–,–,inactive
Cc1ccc(S(=O)(=O)N2C[C@](O)(c3ccccc3)[C@H]2C)cc1,> 200,195,–
O=C1C=CC2OC(c3ccccc3)C(O)C2O1 (centres undefined),> 1070,11.5,–
COc1ccc(NC(=O)CC(=O)Nc2ccc(OC)cc2)cc1,170,> 200,–
Cc1cn(C2CC(O)C(CN=[N+]=[N-])O2)c(=O)[nH]c1=O (centres undefined),> 933,> 933,–
CCOC(=O)c1c(Br)c(-c2ccc(OC)cc2)c(Br)n1C,> 200,12.6,–
CC(CN=C(N)CSS(=O)(=O)O)OC12CC3CC(CC(C3)C1)C2 (centres undefined),> 200,35.5,–
O=C1c2cc3c(cc2CC12Cc1cc4c(cc1C2=O)CCC4)CCCC3 (centres undefined),> 200,> 200,–
CCOC(=O)N1CCc2cc(OC)c(OC)c3c2c1cc1cc(OC)c(OC)cc13,–,–,inactive
CCC/C(Cl)=N\OC(=O)Nc1ccc(Br)cc1,–,–,inactive
O=c1c(Cl)c2cc3c(cc2c2ccccc12)nc1cccnc1n3C1CCCCC1,> 39.8,> 39.8,–
N#Cc1nc(COCc2ccccc2)oc1N,> 200,95.5,–
Cc1ccc(N2C(=O)/C(=C3\Sc4c(nc(C)n(C)c4=O)N3c3ccccc3)SC2=S)cc1,> 3.02,> 3.02,–
C=CCC1(OC(C)=O)C2OC(=O)C1(O)OCC2O (centres undefined),> 200,> 200,–
Cc1cccc2c1[C@]13OC(C)[C@]4(C)CC5OC(=O)[C@@]1(C)[C@@H]5[C@]34C(=O)O2 (some centres undefined),> 200,> 200,–
COC(NC(=O)Nc1ccc(C)cc1)(C(F)(F)F)C(F)(F)F,> 200,27.5,–
